Key:
[1] = target: T1, scanMAX Kinase assay panel (Homo sapiens, UniProt Q96BR1); assay: Kinase selectivity, scanMAX Kinase assay panel (DiscoverX), % control at 1 uM; format: binding; conditions: SGK3; 1 uM; read-out: Percent Control (%)
T1 construct: purchased DiscoverX
T1 sequence (Q96BR1 1-496): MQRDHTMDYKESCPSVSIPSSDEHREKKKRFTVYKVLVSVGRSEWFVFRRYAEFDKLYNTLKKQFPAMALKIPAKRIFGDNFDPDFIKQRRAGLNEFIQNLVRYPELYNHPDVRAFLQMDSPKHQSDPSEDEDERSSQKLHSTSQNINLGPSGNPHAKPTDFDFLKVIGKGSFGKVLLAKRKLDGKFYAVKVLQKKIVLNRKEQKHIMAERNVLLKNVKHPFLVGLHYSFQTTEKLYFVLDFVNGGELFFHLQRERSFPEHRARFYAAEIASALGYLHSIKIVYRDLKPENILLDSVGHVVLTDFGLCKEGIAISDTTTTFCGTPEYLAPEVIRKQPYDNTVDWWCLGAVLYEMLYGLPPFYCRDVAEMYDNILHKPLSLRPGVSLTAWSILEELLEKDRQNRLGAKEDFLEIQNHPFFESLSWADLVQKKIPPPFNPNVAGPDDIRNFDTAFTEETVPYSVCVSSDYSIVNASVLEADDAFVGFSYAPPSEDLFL
In short: (§1)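 Each kinase was first exposed to the test compound at 1 uM in DMSO. Signal was then normalised to positive and negative controls to give % control. Finally, any enzyme showing <35% control was judged inhibited.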

[2] = target: T2, scanMAX Kinase assay panel (Homo sapiens, UniProt O43353); assay: as above; format: binding; conditions: RIPK2; 1 uM; read-out: Percent Control (%)
T2 construct: purchased DiscoverX
In short: as §1

[3] = target: T3, scanMAX Kinase assay panel (Homo sapiens, UniProt Q96J92); assay: as above; format: binding; conditions: WNK4; 1 uM; read-out: Percent Control (%)
T3 construct: purchased DiscoverX
In short: as §1

RET(V804M) = target: T4, RET(V804M) (Homo sapiens, UniProt P07949, V804M); assay: Enzyme inhibitory activity (Kd), Reaction Biology Co.; format: binding
T4 construct: purchased Reaction Biology Co

FGFR4 = target: T5, FGFR4 (Homo sapiens, UniProt P22455); assay: as above; format: binding
T5 construct: purchased Reaction Biology Co

RET = target: T6, RET (Homo sapiens, UniProt P07949); assay: as above; format: binding
T6 construct: purchased Reaction Biology Co

GIST-T1 = assay: Cancer cell proliferation inhibition, cell viability after 72 hours; format: cell-based; conditions: Homo sapiens, GISTT1, imatinib-sensitive
GIST430 = assay: as above; format: cell-based; conditions: Homo sapiens, imatinib-sensitive
In short: (§2)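 GIST-T1/816, GIST-430 and GIST-430/654 seeded at 2×10^4/100 μl; GIST-R3 (patient-derived, imatinib/sunitinib-resistant) likewise. Compounds added next day at 8 concentrations; viability after 72 hours by EZ-cytox or CellTiter-Glo, as % of vehicle-treated cells, IC50 from curves; two independent experiments.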

GIST430/654 = assay: as above; format: cell-based; conditions: GIST-430/654, imatinib-resistant
In short: as §2

GIST-T1/816 = assay: as above; format: cell-based; conditions: Homo sapiens, GISTT1, imatinib-resistant
In short: as §2

MDA-MB-231 = assay: Real time cell proliferation, IncuCyte ZOOM, 72 hours; format: cell-based; conditions: Homo sapiens, MDA-MB-231, 72 h

T5 sequence (P22455 22-802): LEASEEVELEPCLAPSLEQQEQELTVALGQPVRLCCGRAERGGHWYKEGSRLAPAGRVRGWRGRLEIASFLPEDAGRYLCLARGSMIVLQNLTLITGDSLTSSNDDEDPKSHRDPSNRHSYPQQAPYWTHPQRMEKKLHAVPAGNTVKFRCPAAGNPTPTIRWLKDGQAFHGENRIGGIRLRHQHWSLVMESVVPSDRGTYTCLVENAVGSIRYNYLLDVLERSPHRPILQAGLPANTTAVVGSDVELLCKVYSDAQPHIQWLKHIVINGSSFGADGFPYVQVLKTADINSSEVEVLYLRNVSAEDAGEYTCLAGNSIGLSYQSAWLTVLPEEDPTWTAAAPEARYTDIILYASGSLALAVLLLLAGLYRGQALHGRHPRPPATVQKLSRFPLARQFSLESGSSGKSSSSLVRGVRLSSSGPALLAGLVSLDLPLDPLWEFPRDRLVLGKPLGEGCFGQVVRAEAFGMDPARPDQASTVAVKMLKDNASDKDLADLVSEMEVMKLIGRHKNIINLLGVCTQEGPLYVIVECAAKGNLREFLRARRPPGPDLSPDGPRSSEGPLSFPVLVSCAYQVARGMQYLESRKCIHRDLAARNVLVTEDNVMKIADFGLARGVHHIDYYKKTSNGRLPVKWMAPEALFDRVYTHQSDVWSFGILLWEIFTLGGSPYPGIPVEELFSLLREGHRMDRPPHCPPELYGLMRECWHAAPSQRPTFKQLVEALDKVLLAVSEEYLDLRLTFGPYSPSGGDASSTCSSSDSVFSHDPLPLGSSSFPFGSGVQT
T6 sequence (P07949 29-1114): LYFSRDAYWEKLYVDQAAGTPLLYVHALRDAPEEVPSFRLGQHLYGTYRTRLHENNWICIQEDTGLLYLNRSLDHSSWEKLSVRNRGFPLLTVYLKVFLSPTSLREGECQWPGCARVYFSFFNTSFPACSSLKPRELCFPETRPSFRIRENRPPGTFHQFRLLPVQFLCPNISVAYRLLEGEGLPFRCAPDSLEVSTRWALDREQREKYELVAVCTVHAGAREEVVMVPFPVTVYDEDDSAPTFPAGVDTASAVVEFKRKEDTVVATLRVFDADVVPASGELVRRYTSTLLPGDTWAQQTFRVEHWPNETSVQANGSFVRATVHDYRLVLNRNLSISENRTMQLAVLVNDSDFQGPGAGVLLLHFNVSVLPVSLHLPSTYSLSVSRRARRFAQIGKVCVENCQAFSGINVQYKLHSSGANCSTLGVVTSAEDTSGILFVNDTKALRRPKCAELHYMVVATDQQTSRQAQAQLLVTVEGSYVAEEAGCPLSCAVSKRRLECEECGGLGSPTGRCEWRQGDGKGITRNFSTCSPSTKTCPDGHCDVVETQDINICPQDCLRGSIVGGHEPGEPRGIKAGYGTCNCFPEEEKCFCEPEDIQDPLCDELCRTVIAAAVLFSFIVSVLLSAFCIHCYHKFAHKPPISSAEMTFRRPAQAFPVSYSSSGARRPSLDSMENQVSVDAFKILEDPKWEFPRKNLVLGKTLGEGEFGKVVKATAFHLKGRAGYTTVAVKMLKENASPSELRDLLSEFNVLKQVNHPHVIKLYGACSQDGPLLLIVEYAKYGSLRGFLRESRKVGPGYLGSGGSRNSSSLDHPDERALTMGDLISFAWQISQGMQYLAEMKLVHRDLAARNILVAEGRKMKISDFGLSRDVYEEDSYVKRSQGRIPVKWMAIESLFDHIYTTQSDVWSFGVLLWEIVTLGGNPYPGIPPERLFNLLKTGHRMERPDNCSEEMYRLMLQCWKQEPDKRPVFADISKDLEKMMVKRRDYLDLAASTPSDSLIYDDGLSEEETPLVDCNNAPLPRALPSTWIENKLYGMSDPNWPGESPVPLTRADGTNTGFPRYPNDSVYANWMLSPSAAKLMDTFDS
T2 sequence (O43353 whole entry): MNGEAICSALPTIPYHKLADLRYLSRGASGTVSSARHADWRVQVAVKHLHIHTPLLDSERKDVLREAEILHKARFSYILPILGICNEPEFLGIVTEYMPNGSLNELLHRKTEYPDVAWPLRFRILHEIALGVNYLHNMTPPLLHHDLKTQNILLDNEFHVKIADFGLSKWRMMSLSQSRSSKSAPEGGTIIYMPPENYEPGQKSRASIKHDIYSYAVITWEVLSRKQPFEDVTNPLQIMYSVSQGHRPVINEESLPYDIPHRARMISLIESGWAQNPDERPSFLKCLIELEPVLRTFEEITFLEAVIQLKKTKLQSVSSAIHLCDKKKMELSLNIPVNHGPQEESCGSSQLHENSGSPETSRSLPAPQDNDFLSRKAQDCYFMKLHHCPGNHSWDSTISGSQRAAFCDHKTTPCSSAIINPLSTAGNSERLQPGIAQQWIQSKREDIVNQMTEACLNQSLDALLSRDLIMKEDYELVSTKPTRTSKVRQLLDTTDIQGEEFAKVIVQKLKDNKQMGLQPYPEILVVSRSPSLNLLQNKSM
T3 sequence (Q96J92 whole entry): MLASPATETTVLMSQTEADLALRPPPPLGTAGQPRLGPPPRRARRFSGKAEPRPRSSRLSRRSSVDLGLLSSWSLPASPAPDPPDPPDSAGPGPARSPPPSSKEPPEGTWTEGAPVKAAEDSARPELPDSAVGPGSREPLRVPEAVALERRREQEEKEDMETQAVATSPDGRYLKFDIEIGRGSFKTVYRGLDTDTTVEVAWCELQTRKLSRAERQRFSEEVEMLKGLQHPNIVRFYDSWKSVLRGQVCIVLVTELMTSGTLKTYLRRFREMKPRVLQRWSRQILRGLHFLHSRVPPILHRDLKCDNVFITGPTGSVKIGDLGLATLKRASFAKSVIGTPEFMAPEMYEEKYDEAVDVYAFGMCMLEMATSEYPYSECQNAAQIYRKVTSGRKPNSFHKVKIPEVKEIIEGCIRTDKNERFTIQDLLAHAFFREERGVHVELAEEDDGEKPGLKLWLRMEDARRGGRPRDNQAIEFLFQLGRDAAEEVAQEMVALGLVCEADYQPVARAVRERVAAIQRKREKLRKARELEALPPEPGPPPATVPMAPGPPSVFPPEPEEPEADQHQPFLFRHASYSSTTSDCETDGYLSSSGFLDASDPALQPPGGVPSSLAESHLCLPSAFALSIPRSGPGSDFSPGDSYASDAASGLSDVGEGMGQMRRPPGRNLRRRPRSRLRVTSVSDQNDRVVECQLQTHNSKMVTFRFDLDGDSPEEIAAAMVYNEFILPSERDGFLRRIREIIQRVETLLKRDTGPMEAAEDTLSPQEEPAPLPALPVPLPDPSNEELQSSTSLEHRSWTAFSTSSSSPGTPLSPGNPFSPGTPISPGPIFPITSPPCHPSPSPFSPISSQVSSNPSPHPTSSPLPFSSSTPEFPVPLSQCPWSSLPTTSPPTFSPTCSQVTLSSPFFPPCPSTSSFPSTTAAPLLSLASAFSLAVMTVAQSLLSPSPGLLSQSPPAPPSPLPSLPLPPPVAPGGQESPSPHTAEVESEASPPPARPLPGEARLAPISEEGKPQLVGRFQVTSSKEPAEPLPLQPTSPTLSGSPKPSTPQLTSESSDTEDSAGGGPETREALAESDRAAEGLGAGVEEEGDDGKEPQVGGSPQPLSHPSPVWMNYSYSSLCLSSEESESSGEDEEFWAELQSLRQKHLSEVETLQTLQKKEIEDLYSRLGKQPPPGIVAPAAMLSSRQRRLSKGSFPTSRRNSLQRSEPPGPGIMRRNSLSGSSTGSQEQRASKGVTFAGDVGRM
T4 sequence (P07949 29-1114 V804M): as the sequence (P07949 29-1114) above, with V776M counted along it

SMILES	remaining binding at 1 µM [1]	remaining binding at 1 µM [2]	remaining binding at 1 µM [3]	Kd (RET(V804M))	Kd (FGFR4)	Kd (RET)	IC50 (GIST-T1)	IC50 (GIST430)	IC50 (GIST430/654)	IC50 (GIST-T1/816)	IC50 (MDA-MB-231)
Cc1ccc(C(=O)Nc2ccc(CN3CCN(C)CC3)c(C(F)(F)F)c2)cc1C#Cc1cnc2c(Nc3cnn(C)c3)cccn12 [Example 1, 4-methyl-3-((8-((1-methyl-1H-pyrazol-4-yl)amino)imidazo[1,2-a]pyridin-3-yl)ethynyl)-N-(4-((4-methylpiperazin-1-yl)methyl)-3-(trifluoromethyl)phenyl)benzamide]	97%	7%	96%	11 nM	56 nM	10 nM	1.9 nM	36.8 nM	332 nM	35.4 nM	187 nM
CCN1CCN(Cc2ccc(NC(=O)c3ccc(C)c(C#Cc4cnc5c(Nc6cnn(C)c6)cccn45)c3)cc2C(F)(F)F)CC1 [Example 8, N-(4-((4-ethylpiperazin-1-yl)methyl)-3-(trifluoromethyl)phenyl)-4-methyl-3-((8-((1-methyl-1H-pyrazol-4-yl)amino)imidazo[1,2-a]pyridin-3-yl)ethynyl)benzamide]				9.1 nM	57 nM	7.5 nM					96 nM
Cc1ccc(C(=O)Nc2cccc(C(F)(F)F)c2)cc1C#Cc1cnc2c(Nc3cnn(C4CCNCC4)c3)cccn12 [Example 11, 4-methyl-3-((8-((1-(piperidin-4-yl)-1H-pyrazol-4-yl)amino)imidazo[1,2-a]pyridin-3-yl)ethynyl)-N-(3-(trifluoromethyl)phenyl)benzamide]							0.8 nM	63.6 nM	560 nM	40.7 nM	679 nM
Cc1cn(-c2cc(NC(=O)c3ccc(C)c(C#Cc4cnc5c(Nc6cnn(C)c6)cccn45)c3)cc(C(F)(F)F)c2)cn1 [Example 12, 4-methyl-N-(3-(4-methyl-1H-imidazol-1-yl)-5-(trifluoromethyl)phenyl)-3-((8-((1-methyl-1H-pyrazol-4-yl)amino)imidazo[1,2-a]pyridin-3-yl)ethynyl)benzamide]	100%	22%	100%	32 nM	370 nM	25 nM	12.3 nM	56.3 nM	564 nM	308 nM	1190 nM
Cc1ccc(NC(=O)C2(C(=O)Nc3ccc(F)cc3)CC2)cc1C#Cc1cnc2c(Nc3cnn(C(C)C)c3)cccn12 [Example 78]	78%	99%	100%								8780 nM
